Counter-ions that a name gives are not always drawn.
Tests used:
[1] = tested on: E. coli RNase P RNA, M1 RNA; test: Inhibition of bacterial RNase P activity, IC50 determination (cleavage of pATSerUG by M1 RNA); format: biochemical; settings: NI: No inhibition
[2] = tested on: Staphylococcus aureus (ATCC25923); test: MIC, broth microdilution (CLSI), Staphylococcus aureus ATCC25923; settings: Staphylococcus aureus, ATCC25923, read-out: S. aureus ATCC 25923 MIC
[3] = tested on: Escherichia coli (ATCC25922); test: MIC, broth microdilution (CLSI), Escherichia coli; settings: Escherichia coli, ATCC25922, read-out: E. coli ATCC 25922 MIC, Table XIII

IC50 [1] [µM] | MIC [2] [µg/mL] | MIC [3] [µg/mL] | IC50 ([1]; hydrochloride salt) [µM] | Structure (SMILES)
14 | 8 | 64 |  | Cc1cccc(C(CC(=O)N[C@H]2CC[C@@H](N)CC2)c2cn(CC3CCCCC3)c3ccccc23)c1.Cl (stereo partly drawn) [Compound 114, N-((1s,4s)-4-aminocyclohexyl)-3-(1-(cyclohexylmethyl)-1H-indol-3-yl)-3-(m-tolyl)propanamide hydrochloride salt]
18 | 34 | 67 |  | Cc1cccc(C(CC(=O)NC2CCC(N)CC2)c2cn(CC3CCCCC3)c3ccc(O)cc23)c1.Cl [Compound 165, N-((1S,4S)-4-aminocyclohexyl)-3-(1-(cyclohexylmethyl)-5-hydroxy-1H-indol-3-yl)-3-(m-tolyl)propanamide hydrochloride salt]
389 | 64 | 256 |  | Cc1cccc(C(CC(=O)NC2CCNCC2)c2cn(CC3CC3)c3ccccc23)c1.Cl (stereo not drawn) [Compound 123, 3-(1-(cyclopropylmethyl)-1H-indol-3-yl)-N-(piperidin-4-yl)-3-(m-tolyl)propanamide hydrochloride salt]
 | 5 | 5 | 5.7 | Cc1cccc(C(CC(=O)NC2CCC(N)CC2)c2cn(CC3CCCCC3)c3cc(Br)ccc23)c1 [Compound 222, N-((1S,4S)-4-aminocyclohexyl)-3-(6-bromo-1-(cyclohexylmethyl)-1H-indol-3-yl)-3-(m-tolyl)propanamide hydrochloride salt]
3.4 | 38 | > 512 |  | Cc1cccc(C(CC(=O)NC2CCC(N)CC2)c2cn(CC3CCCCC3)c3ccc(-c4ccccc4C)cc23)c1.Cl [Compound 221, N-((1S,4S)-4-aminocyclohexyl)-3-(1 - (cyclohexylmethyl)-5-(o-tolyl)-1H-indol-3-yl)-3-(m-tolyl)propanamide hydrochloride salt]
1230 | 128 | 256 |  | Cc1cccc(C(CC(=O)N[C@H]2CC[C@H](N)CC2)c2cn(C(C)C)c3ccccc23)c1.Cl (stereo partly drawn) [Compound 154, N-((1R,4R)-4-aminocyclohexyl)-3-(1-isopropyl-1H-indol-3-yl)-3-(m-tolyl)propanamide hydrochloride salt]
3.4 | 131 | 262 |  | Cl.NC1CCC(NC(=O)CC(c2ccnc(O)c2)c2cn(CC3CCCCC3)c3ccccc23)CC1 [Compound 157, N-((1S,4S)-4-aminocyclohexyl)-3-(1-(cyclohexylmethyl)-1H-indol-3-yl)-3-(2-hydroxypyridin-4-yl)propanamide hydrochloride salt]
13 | 16 | > 512 |  | Cc1ccccc1C(CC(=O)NC1CCC(N)CC1)c1cn(CC2CCCCC2)c2ccccc12.Cl [Compound 149, N-((1S,4S)-4-aminocyclohexyl)-3-(1-(cyclohexylmethyl)-1H-indol-3-yl)-3-(o-tolyl)propanamide hydrochloride salt]
15 | 2 | > 512 |  | Cc1cccc(C(CC(=O)N(C)C2CCNCC2)c2cn(CC3CCCCC3)c3ccc(Br)cc23)c1.Cl (stereo not drawn) [Compound 278, 3-(5-bromo-1-(cyclohexylmethyl)-1H-indol-3-yl)-N-methyl-N-(piperidin-4-yl)-3-(m-tolyl)propanamide hydrochloride salt]
10 | 4 | 4 |  | NC1CCC(NCCC(c2cccc(F)c2)c2cn(CC3CCCCC3)c3ccccc23)CC1 [Compound 172, (1S,4S)-N1-(3-(1-(cyclohexylmethyl)-1H-indol-3-yl)-3-(3-fluorophenyl)propyl) cyclohexane-1,4-diamine hydrochloride salt]
9.2 | 4 | > 512 |  | Cc1cccc(C(CC(=O)NC2CCC(N)CC2)c2cn(CC3CCCCCC3)c3ccccc23)c1.Cl [Compound 238, N-((1S,4S)-4-aminocyclohexyl)-3-(1-(cycloheptylmethyl)-1H-indol-3-yl)-3-(m-tolyl)propanamide hydrochloride salt]
195 | 33 | 133 |  | COc1cccc(C(CC(=O)N[C@H]2CC[C@@H](N)CC2)c2cn(Cc3ccccc3)c3ccccc23)c1.Cl (stereo partly drawn) [Compound 66, N-((1S,4S)-4-aminocyclohexyl)-3-(1-benzyl-1H-indol-3-yl)-3-(3-methoxyphenyl) propanamide hydrochloride salt]
5.8 | 5 | > 512 |  | Cc1cccc(C(CC(=O)NC2CCC(N)CC2)c2cn(CC3CCCCC3)c3ccc(-c4ccncc4)cc23)c1 (stereo not drawn) [Compound 188, N-(4-aminocyclohexyl)-3-(1-(cyclohexylmethyl)-5-(pyridin-4-yl)-1H-indol-3-yl)-3-(m-tolyl) propanamide hydrochloride salt]
34 | 8 | 65 |  | Cc1cccc(C(CC(=O)N(C)C2CCNCC2)c2cn(CC3CCCCC3)c3ccccc23)c1.Cl (stereo not drawn) [Compound 279, 3-(1-(cyclohexylmethyl)-1H-indol-3-yl)-N-methyl-N-(piperidin-4-yl)-3-(m-tolyl)propanamide hydrochloride salt]
71 | 34 | 136 |  | Cc1cccc(C(CC(=O)NC2CCNCC2)c2cn(CC3CCC(F)(F)CC3)c3ccccc23)c1.Cl (stereo not drawn) [Compound 282, 3-(1-((4,4-difluorocyclohexyl)methyl)-1H-indol-3-yl)-N-(piperidin-4-yl)-3-(m-tolyl)propanamide hydrochloride salt]
95 | 64 | 128 |  | Cl.N[C@H]1CC[C@H](NC(=O)CC(c2cccnc2)c2cn(CC3CCCCC3)c3ccccc23)CC1 (stereo partly drawn) [Compound 138, N-((1R,4R)-4-aminocyclohexyl)-3-(1-(cyclohexylmethyl)-1H-indol-3-yl)-3-(pyridin-3-yl)propanamide hydrochloride salt]
15.4 | 2 | 75 |  | Cc1cccc(C(CC(=O)NC2CCC(NC(=N)N)CC2)c2cn(CC3CCCCC3)c3ccccc23)c1 (stereo not drawn) [Compound 201, 3-(1-(cyclohexylmethyl)-1H-indol-3-yl)-N-(4-guanidinocyclohexyl)-3-(m-tolyl) propanamide hydrochloride salt]
3.2 | 158 | > 512 |  | Cc1cccc(C(CC(=O)N[C@H]2CC[C@H](N)CC2)c2cn(CC3CCCCC3)c3ccc(-c4ccccc4Cl)cc23)c1.Cl (stereo partly drawn) [Compound 205, N-((1R,4R)-4-aminocyclohexyl)-3-(5-(2-chlorophenyl)-1-(cyclohexylmethyl)-1H-indol-3-yl)-3-(m-tolyl)propanamide hydrochloride salt]
50 | 2 | 4 |  | Cl.N[C@H]1CC[C@H](NCCC(c2cn(CC3CCCCC3)c3ccccc23)C2CCCCC2)CC1 (stereo partly drawn) [Compound 204, (1rR4R)-N1-(3-cyclohexyl-3-(1-(cyclohexylmethyl)-1H-indol-3-yl)propyl) cyclohexane-1,4-diamine hydrochloride salt]
5.8 | 4 | > 512 |  | Cc1cccc(C(CC(=O)N[C@H]2CC[C@H](N)CC2)c2cn(CC3CCCCC3)c3ccc(Br)cc23)c1.Cl (stereo partly drawn) [Compound 126, N-((1R,4R)-4-aminocyclohexyl)-3-(5-bromo-1-(cyclohexylmethyl)-1H-indol-3-yl)-3-(m-tolyl)propanamide hydrochloride salt]
33 | 8 | 66 |  | NC1CCC(NC(=O)Cc2cn(CC3CCCCC3)c3ccc(-c4ccncc4)cc23)CC1 [Compound 255, N-((1S,4S)-4-aminocyclohexyl)-2-(1-(cyclohexylmethyl)-5-(pyridin-4-yl)-1H-indol-3-yl)acetamide hydrochloride salt]
29 | 8 | 256 |  | Cc1cccc(C(CC(=O)N[C@H]2CC[C@H](N)CC2)c2cn(CC3CCCCC3)c3ccc(F)cc23)c1.Cl (stereo partly drawn) [Compound 125, N-((1R,4R)-4-aminocyclohexyl)-3-(1-(cyclohexylmethyl)-5-fluoro-1H-indol-3-yl)-3-(m-tolyl)propanamide hydrochloride salt]

Structure (SMILES) | IC50 [1] [µM] | MIC [2] [µg/mL] | MIC [3] [µg/mL] | IC50 ([1]; hydrochloride salt) [µM]
Cc1cccc(C(CCN(C)C2CCNCC2)c2cn(CC3CCCCC3)c3ccc(Br)cc23)c1 (stereo not drawn) [Compound 291, N-(3-(5-bromo-1-(cyclohexylmethyl)-1H-indol-3-yl)-3-(m-tolyl)propyl)-N-methylpiperidin-4-amine hydrochloride salt] | 10 | 2 | 10 | 
O=C(CC(c1cn(CC2CCCCC2)c2ccccc12)C1CCNCC1)NCCC1CCNCC1 (stereo not drawn) [Compound 145, 3-(1-(cyclohexylmethyl)-1H-indol-3-yl)-3-(piperidin-4-yl)-N-(2-(piperidin-4-yl)ethyl)propanamide hydrochloride salt] | 1480 | 512 | > 512 | 
Cc1cccc(-c2ccc3c(c2)c(C(=O)N[C@H]2CC[C@H](N)CC2)cn3CC2CCCCC2)c1.Cl [Compound 269, N-((1r,4r)-4-aminocyclohexyl)-1-(cyclohexylmethyl)-5-(m-tolyl)-1H-indole-3-carboxamide hydrochloride salt] | 29 | 8 | > 512 | 
Cc1cccc(C(CCNC2CCNCC2)c2cn(CC3CCOCC3)c3ccccc23)c1 (stereo not drawn) [Compound 292, N-(3-(1-((tetrahydro-2H-pyran-4-yl)methyl)-1H-indol-3-yl)-3-(m-tolyl)propyl)piperidin-4-amine hydrochloride salt] | 130 | 33 | 66 | 
FC1(F)CCC(Cn2cc(CCNC3CCNCC3)c3cc(Br)ccc32)CC1 [Compound 290, N-(2-(5-bromo-1-((4,4-difluorocyclohexyl)methyl)-1H-indol-3-yl)ethyl)piperidin-4-amine hydrochloride salt] | 61 | 17 | 17 | 
